In US7201899B2, “Materials and methods for management of hyperacute rejection in human xenotransplantation” (BresaGen Limited, priority 1994, dated 2007):

Experiments:
PK-1 and PAE's cells = experiment: Antibody staining and FACS analysis of porcine cells; assay type: binding; settings: for inhibition of anti-GAL IgM and/or IgG staining of porcine cells by sugar: anti-GAL antibodies pre-incubated with sugar (0.1 M) at 37° C. for 30 min
Experimental: C. Antibody Staining and FACS Analysis • 1) Add 2 ml TED to a 75 cm^2 culture flask containing PK-1 or PAE'S, and incubate at room temperature for 10 min. • 2) Add RPMI plus 10% FCS (5 ml) to neutralize trypsin. • 3) Pellet cells by centrifugation (700 g, 5 min, • 4) Wash cells by resuspension and centrifugation in Hanks Buffer (×2). • 5) Pellet cells by centrifugation (700 g, 5 min, 4° C.). • 6) Resuspend cell pellet in Hanks buffer containing purified anti-GAL antibodies, GAL-depleted serum or GAL-depleted IgG and incubate at 4° C. for 60 min. All antibodies were used undiluted, or diluted 1:2 or 1:4 in Hanks buffer. • 7) Add 1 ml of Hanks Buffer, pellet cells by centrifugation and aspirate off supernatant. • 8) Resuspend pellet in FITC-labelled sheep-anti-human IgG Fab2 or IgM Fab2 (Silenus, Hawthorn, Australia) diluted 1:80 in Hanks buffer. • 9) Incubate for 30 min. at 4° C. • 10) Wash three times with Hanks buffer; resuspend pellet from final wash in 0.5 ml Hanks buffer. • 11) Analyze stained samples using a FACScan II (Becton Dickinson) according to the manufacturer's instructions.
The specificity of the anti-GAL antibody binding to porcine cells was determined by examining the ability of sugars of various structures to inhibit antibody binding. In these competition studies the anti-GAL antibodies were pre-incubated with sugar (0.1 M) at 37° C. for 30 min before adding to the cells.

pig RBC = experiment: Hemagglutination of pig RBC by human serum: sugar inhibition; assay type: cell-based; settings: for Inhibitory Concentration: inhibition of pig RBC hemagglutination by pooled human AB serum; for concentration range inhibiting agglutination (in words): pig RBC agglutination by human serum
Experimental: The methods used to investigate the hemagglutination of pig red blood cells (RBC's) by human serum was adapted from the methods described by Galili, J. Exp. Med. 160: 1579–81 (1984) and Severson, Immunol. 96: 785–789 (1966).
A. Media/Solution Preparation • 1. Human Serum Albumin (HSA) (CSL, Melbourne, Australia) (5 mg/ml) was dissolved in PBS, filter sterilized, and stored at 4° C. • 2. Preparation of sugars: • 1 M stock solutions of sugar were prepared by dissolving the amount indicated in 100 ml of PBS. Sodium azide was added (0.02%) and solutions stored at 4° C.
B. Preparation of Pig RBC'S • 1. Heparinised pig blood (Animal Resources, Clayton, Australia) is centrifuged at 800 RPM for 10 min to pellet the RBC. • 2. The RBC pellet is washed by resuspension in PBS (10 ml) and recentrifugation (repeated 3 times). After the final wash, the RBC pellet is resuspended in 10 ml PBS. • 3. A 0.5% solution of RBC's is prepared by adding 50 ul RBC solution (from step 2, above) to 10 ml PBS containing 0.5 g/100 ml of HSA.
C. Preparation of 96-well Microtitre Plates (Titretek. USA) • 1. Add 25 ul of PBS to each well. • 2. Add 25 ul of pooled human AB serum (CSL, Melbourne, Australia) to column 1 and serially dilute by removing 25 ul from column 1 and adding to column 2, then repeating by sequentially removing and adding 25 ul from and to each well across the plate, finally discarding 25 μl from column 11 and adding no serum to column 12. • 3. Add 25 ul of sugar solution to each row in decreasing concentrations down rows. No sugar solution is added to the final row. • 4. Incubate at 4° C. overnight and then at 37° C. for 30 min. • 5. Add 50 ul of 0.5% pig RBC to each well; vortex and incubate at room temperature for 2 hours. Determine agglutination visually. II. Results

[1] = system: pig kidney, heart and liver sections; experiment: Immunostaining of pig tissues with anti-GAL antibodies; assay type: binding; settings: pig renal cortex sections, proximal tubule brush borders; sugar 0.1 M
Experimental: Pig kidney was fixed in formalin and dehydrated before embedding in Paraplast. Pig heart and liver were fixed in paraformaldehyde-lysine-periodate fixative and snap frozen in O.C.T. embedding compound (10.24% w/w polyvinyl alcohol, 4.26% w/w polyethylene glycol, 85.50% w/w nonreactive ingredients; Tissue Tek®, Miles, Inc., Elkhart, Ind., USA). Four μm-thick sections of pig heart and liver and 2 μm-thick sections of kidney were incubated with purified anti-GAL antibodies (undiluted, 1:2 and 1:4) for 60 min. and then incubated with a fluorescein isothiocyanate (FITC)-conjugated sheep anti-human immunoglobulin F(ab′) fragment. (Silenus Laboratories, Hawthorn, Australia) (1:100) for 30 min. or a peroxidase-conjugated rabbit anti-human IgG (Dakopatts, Glostrup, Denmark) (1:50) for 60 min. Control sections were analyzed for autofluorescence, with the secondary antibody alone, or with the anti-GAL-depleted IgG or normal pig serum as the primary antibody. […] The specificity of the anti-GAL antibodies was tested by pre-incubating sections of pig renal cortex with a variety of sugars, including melibiose, lactose, sucrose and glucose at 0.1 M.

inhibition of anti-GAL antibody binding to pig tissue by sugar [1] | Structure (SMILES) | inhibition of anti-GAL IgM and/or IgG staining of porcine cells by sugar (PK-1 and PAE's cells) | Inhibitory Concentration (pig RBC) | concentration range inhibiting agglutination (in words) (pig RBC) | decrease of anti-GAL antibody staining of PAE's (FIG. 1) (PK-1 and PAE's cells; anti-GAL antibody pre-incubated with sugar, versus anti-GAL antibody alone)
 | OC[C@H]1O[C@H](OC[C@H]2O[C@H](OC[C@H]3O[C@H](O[C@]4(CO)O[C@H](CO)[C@@H](O)[C@@H]4O)[C@H](O)[C@@H](O)[C@@H]3O)[C@H](O)[C@@H](O)[C@H]2O)[C@H](O)[C@@H](O)[C@H]1O [Stachyose, α-D-gal-[1->6]-α-D-Glc-[1->2]-β-D-Fru] | inhibited | 0.002 M | μM to mM range | 
not inhibited | OC[C@H]1O[C@@](CO)(O[C@H]2O[C@H](CO)[C@@H](O)[C@H](O)[C@H]2O)[C@@H](O)[C@@H]1O [Sucrose, α-D-Glucopyranosyl β-D-fructofuranoside] |  | >10^−1M | only inhibitory when very high concentrations were used | 
 | O=C[C@H](O)[C@@H](O)[C@@H](O)[C@H](O)CO [Galactose, D(+)galactose] | inhibited | 0.002 M | μM to mM range | approximately 10 fold less
